Measured values taken from ChEMBL document CHEMBL2034966, “Bidirectional fluorescence properties of pyrene-based peroxisome proliferator-activated receptor (PPAR) α/δ dual agonist” (Bioorg Med Chem, 2012).
Changes are numbered by the printed parent chain. Activity calls are given as the source filed them. The calls are words filed in the database; no cut-off is given here.

How the values were obtained:
[1] = test system: T1, Peroxisome proliferator-activated receptor alpha (Homo sapiens), Q07869 [L258W]; assay: Binding affinity to N-terminal His-tagged human PPARalpha L258W mutant ligand binding domain assessed as increase in fluorescence at 500 nM by fluorometry
T1 sequence (whole entry): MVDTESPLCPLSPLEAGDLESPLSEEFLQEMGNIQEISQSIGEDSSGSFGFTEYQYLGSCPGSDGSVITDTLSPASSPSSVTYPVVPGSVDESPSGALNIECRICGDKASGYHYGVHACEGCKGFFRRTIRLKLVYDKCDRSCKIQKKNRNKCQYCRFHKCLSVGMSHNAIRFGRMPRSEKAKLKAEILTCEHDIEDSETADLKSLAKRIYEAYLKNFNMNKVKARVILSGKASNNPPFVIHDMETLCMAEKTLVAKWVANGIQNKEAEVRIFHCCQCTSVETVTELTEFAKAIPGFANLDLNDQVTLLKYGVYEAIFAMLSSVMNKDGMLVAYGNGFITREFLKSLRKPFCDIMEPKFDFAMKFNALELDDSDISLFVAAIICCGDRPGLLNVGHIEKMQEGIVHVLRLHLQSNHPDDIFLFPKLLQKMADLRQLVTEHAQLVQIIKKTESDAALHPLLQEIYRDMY

[2] = species on record: Homo sapiens; assay: Binding affinity to N-terminal His-tagged human PPARdelta W225A mutant ligand binding domain assessed as decrease in fluorescence at 500 nM by fluorometry
[3] = species on record: Homo sapiens; assay: Binding affinity to N-terminal His-tagged human PPARdelta W264A mutant ligand binding domain assessed as increase in fluorescence at 500 nM by fluorometry
[4] = species on record: Homo sapiens; assay: Binding affinity to N-terminal His-tagged human PPARdelta W264L mutant ligand binding domain assessed as increase in fluorescence at 500 nM by fluorometry
[5] = target: T2, Peroxisome proliferator-activated receptor alpha (Homo sapiens) (UniProt Q07869); assay: Binding affinity to N-terminal His-tagged human PPARalpha ligand binding domain assessed as increase in fluorescence at 500 nM by fluorometry
T2 sequence (whole entry): T1 sequence (whole entry) with W258L

[6] = target: T3, Peroxisome proliferator-activated receptor delta (Homo sapiens) (UniProt Q03181); assay: Binding affinity to N-terminal His-tagged human PPARdelta ligand binding domain assessed as decrease in fluorescence at 500 nM by fluorometry
T3 sequence (whole entry): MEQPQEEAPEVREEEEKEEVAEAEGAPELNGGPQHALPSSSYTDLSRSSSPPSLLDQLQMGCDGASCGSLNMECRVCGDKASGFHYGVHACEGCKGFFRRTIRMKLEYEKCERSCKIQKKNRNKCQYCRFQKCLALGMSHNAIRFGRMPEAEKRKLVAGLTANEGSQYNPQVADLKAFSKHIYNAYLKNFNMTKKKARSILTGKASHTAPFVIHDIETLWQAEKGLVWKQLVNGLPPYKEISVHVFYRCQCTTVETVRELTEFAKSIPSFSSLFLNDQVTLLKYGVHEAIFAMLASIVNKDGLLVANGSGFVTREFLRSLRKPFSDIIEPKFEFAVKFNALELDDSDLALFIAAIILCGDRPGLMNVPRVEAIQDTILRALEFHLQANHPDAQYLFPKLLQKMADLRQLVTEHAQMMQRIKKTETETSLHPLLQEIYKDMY

[7] = species on record: Homo sapiens; assay: Binding affinity to N-terminal His-tagged human PPARdelta W256A mutant ligand binding domain assessed as increase in fluorescence at 500 nM by fluorometry

Activity [1]: inactive
Activity [2]: Active
Activity [3]: Active
Activity [4]: Active
Activity [5]: Active
Activity [6]: Active
Activity [7]: inactive
Compound: CC[C@@H](Cc1ccc(OC)c(CNC(=O)c2ccc3ccc4cccc5ccc2c3c45)c1)C(=O)O
